In patent publication US4962113A, “Pyridinium derivatives, their production and use” (Takeda Chemical Industries, Ltd, priority 1987, dated 1990):
Read-outs that look alike come from different tables or passages of the source.

Legend:
[1] = Acute Toxicity Test; type: in vivo; conditions: oral, 1000 mg/kg, until after one week
Method: Male Jcl-ICR mice (5 wk) were used in groups of five individuals. The animals of the respective groups were orally administered with the compounds (227), (236) and (303) respectively produced in Production Examples 87, 90 and 109 at the dose of 1000 mg/kg.

[2] = system: PAF-induced hypotension; experiment: Inhibitory action on PAF-induced hypotension in rats; type: in vivo, rat (Sprague-Dawley); conditions: Rattus norvegicus, read-out: Inhibitory Rate (Lowering of Blood Pressure); for inhibition in vivo at 0.01 mg/kg / inhibition in vivo at 0.1 mg/kg / inhibition in vivo at 0.03 mg/kg: iv; for inhibition in vivo at 1 mg/kg / inhibition in vivo at 3 mg/kg / inhibition in vivo at 10 mg/kg / inhibition in vivo at 30 mg/kg: oral
Method: Sprague-Dawley male rats, each weighing about 250 g, were subjected to the experiment. The rats were cannulated on the side of femoral artery for measuring the blood pressure, and on the side of femoral vein for administering the drug. The blood pressure was measured through a pressure transducer and recorded. First, PAF (1 μg/kg) was administered intravenously (i.v.) to examine the extent of lowering of blood pressure. Then, the test samples were administered intravenously or orally. […]
The inhibitory action on PAF-induced hypotension (% inhibition) is indicated as the ratio of blood pressure-lowering degree (Δ mmHg) induced by PAF after administration of test samples relative to blood pressure-lowering degree (Δ mmHg) induced by PAF before administration of test samples.

[3] = system: platelet aggregation (PAF); experiment: Inhibitory action on PAF-induced rabbit platelet aggregation; type: cell-based; conditions: Oryctolagus cuniculus, read-out: inhibitory percentage (platelet aggregation); for inhibition at 3 µM: 3 × 10^-6 M; for inhibition at 0.3 µM: 3 × 10^-7 M; for inhibition at 0.03 µM: 3 × 10^-8 M
Method: Blood was collected directly from the hearts of male rabbits using a syringe containing, as an anticoagulant, 3.15% citric acid (one part to 9 parts of blood). The blood was subjected to centrifuge at 800 rpm for ten minutes at room temperature to obtain platelet rich plasma (PRP). The remaining blood was further subjected to centrifuge at 3000 rpm for ten minnutes to separate platelet poor plasma (PPP) as the supernatant. PRP was diluted with PPP, and the number of platelets was adjusted to about 500,000/ μl. This PRP(250 μl) was stirred for two minutes at 37° C., and there was added a test sample, and the mixture was stirred for further two minutes, followed by addition of PAF of a given concentration. Platelet aggregation was examined by means of a platelet-agglutometer (manufactured by Rika Denki). Platelet aggregation preventing action of the test sample was determined based on the maximum percent light transmission (maximum percent. agglutination).

Compound: CCC[n+]1cc(Br)cc(C(=O)N(CCC(=O)NCCOC(=O)N2CCc3ccccc3C2)c2ccccc2)c1 [Production Example 87, 5-Bromo-3-[N-[2-[[2-(1,2,3,4-tetrahydroisoquinolyl)carbonyloxy]ethyl]carbamoyl]ethyl-N-phenyl]carbamoyl-1-propylpyridinium chloride]
- death of mice [1]: No death of mice was observed
- inhibition in vivo at 0.01 mg/kg ([2]; 1 hr.): 64%
- inhibition in vivo at 0.01 mg/kg ([2]; 2 hr.): 51%
- inhibition in vivo at 0.01 mg/kg ([2]; 4 hr.): 41%
- inhibition in vivo at 0.01 mg/kg ([2]; 6 hr.): 30%
- inhibition in vivo at 0.01 mg/kg ([2]; 8 hr.): 23%
- inhibition in vivo at 0.01 mg/kg ([2]; 5 min, i.v., 5 min.): 91%
- inhibition in vivo at 1 mg/kg ([2]; 1 hr.): 57%
- inhibition in vivo at 1 mg/kg ([2]; 2 hr.): 76%
- inhibition in vivo at 1 mg/kg ([2]; 4 hr.): 86%
- inhibition in vivo at 1 mg/kg ([2]; 6 hr.): 74%
- inhibition in vivo at 1 mg/kg ([2]; 8 hr.): 63%
- inhibition in vivo at 3 mg/kg ([2]; 1 hr.): 100%
- inhibition in vivo at 3 mg/kg ([2]; 2 hr.): 97%
- inhibition in vivo at 3 mg/kg ([2]; 4 hr.): 99%
- inhibition in vivo at 3 mg/kg ([2]; 6 hr.): 93%
- inhibition in vivo at 3 mg/kg ([2]; 8 hr.): 88%
- inhibition at 3 µM [3]: 100%
- inhibition at 0.3 µM [3]: 100%
- inhibition at 0.03 µM [3]: 49%

Compound: CCC[n+]1cc(Br)cc(C(=O)N(CCC(=O)NCCNC(=O)c2cccc3ccccc23)c2ccccc2)c1 [Production Example 108, 5-Bromo-3-[N-[2-[2-(1-naphthoylamino)ethyl]carbamoyl]ethyl-N-phenyl]carbamoyl-1-propylpyridinium chloride]
- inhibition in vivo at 0.1 mg/kg ([2]; 1 hr.): 100%
- inhibition in vivo at 0.1 mg/kg ([2]; 2 hr.): 97%
- inhibition in vivo at 0.1 mg/kg ([2]; 4 hr.): 75%
- inhibition in vivo at 0.1 mg/kg ([2]; 6 hr.): 58%
- inhibition in vivo at 0.1 mg/kg ([2]; 8 hr.): 45%
- inhibition in vivo at 0.1 mg/kg ([2]; 5 min, i.v., 5 min.): 100%
- inhibition in vivo at 1 mg/kg ([2]; 1 hr.): 64%
- inhibition in vivo at 1 mg/kg ([2]; 2 hr.): 61%
- inhibition in vivo at 1 mg/kg ([2]; 4 hr.): 55%
- inhibition in vivo at 1 mg/kg ([2]; 6 hr.): 51%
- inhibition in vivo at 1 mg/kg ([2]; 8 hr.): 42%
- inhibition in vivo at 3 mg/kg ([2]; 1 hr.): 92%
- inhibition in vivo at 3 mg/kg ([2]; 2 hr.): 86%
- inhibition in vivo at 3 mg/kg ([2]; 4 hr.): 94%
- inhibition in vivo at 3 mg/kg ([2]; 6 hr.): 94%
- inhibition in vivo at 3 mg/kg ([2]; 8 hr.): 72%
- inhibition at 3 µM [3]: 100%
- inhibition at 0.3 µM [3]: 37%
- inhibition at 0.03 µM [3]: 5%

Compound: CCC[n+]1cc(Br)cc(C(=O)N(CCC(=O)NCCNS(=O)(=O)c2ccc3ccccc3c2)c2ccccc2)c1 [Production Example 98, 5-Bromo-3-[N-[2-[2-(2-naphthylsulfonamidoethyl]carbamoyl]ethyl-N-phenyl]carbamoyl-1-propylpyridinium chloride]
- inhibition in vivo at 1 mg/kg ([2]; 1 hr.): 70%
- inhibition in vivo at 1 mg/kg ([2]; 2 hr.): 74%
- inhibition in vivo at 1 mg/kg ([2]; 4 hr.): 74%
- inhibition in vivo at 1 mg/kg ([2]; 6 hr.): 70%
- inhibition in vivo at 1 mg/kg ([2]; 8 hr.): 69%
- inhibition in vivo at 3 mg/kg ([2]; 1 hr.): 87%
- inhibition in vivo at 3 mg/kg ([2]; 2 hr.): 91%
- inhibition in vivo at 3 mg/kg ([2]; 4 hr.): 93%
- inhibition in vivo at 3 mg/kg ([2]; 6 hr.): 93%
- inhibition in vivo at 3 mg/kg ([2]; 8 hr.): 89%
- inhibition at 3 µM [3]: 100%
- inhibition at 0.3 µM [3]: 100%
- inhibition at 0.03 µM [3]: 16%

Compound: CCC[n+]1cc(Br)cc(C(=O)N(CCOC(=O)NCCOc2cccc3ccccc23)c2ccccc2)c1 [Production Example 7, 5-bromo-3-[N-[2-[2-(1-naphthyloxy)ethyl]carbamoyloxy]ethyl-N-phenyl]carbamoyl-1-propylpyridinium iodide]
- inhibition in vivo at 0.01 mg/kg ([2]; 1 hr.): 59%
- inhibition in vivo at 0.01 mg/kg ([2]; 2 hr.): 48%
- inhibition in vivo at 0.01 mg/kg ([2]; 4 hr.): 45%
- inhibition in vivo at 0.01 mg/kg ([2]; 6 hr.): 40%
- inhibition in vivo at 0.01 mg/kg ([2]; 8 hr.): 35%
- inhibition in vivo at 0.03 mg/kg ([2]; 1 hr.): 84%
- inhibition in vivo at 0.03 mg/kg ([2]; 2 hr.): 81%
- inhibition in vivo at 0.03 mg/kg ([2]; 4 hr.): 68%
- inhibition in vivo at 0.03 mg/kg ([2]; 6 hr.): 57%
- inhibition in vivo at 0.03 mg/kg ([2]; 8 hr.): 51%
- inhibition in vivo at 0.1 mg/kg ([2]; 1 hr.): 100%
- inhibition in vivo at 0.1 mg/kg ([2]; 2 hr.): 91%
- inhibition in vivo at 0.1 mg/kg ([2]; 4 hr.): 76%
- inhibition in vivo at 0.1 mg/kg ([2]; 6 hr.): 63%
- inhibition in vivo at 0.1 mg/kg ([2]; 8 hr.): 58%
- inhibition in vivo at 0.01 mg/kg ([2]; 5 min, i.v., 5 min.): 76%
- inhibition in vivo at 0.03 mg/kg ([2]; 5 min, i.v., 5 min.): 100%
- inhibition in vivo at 0.1 mg/kg ([2]; 5 min, i.v., 5 min.): 100%
- inhibition in vivo at 3 mg/kg ([2]; 1 hr.): 36%
- inhibition in vivo at 3 mg/kg ([2]; 2 hr.): 59%
- inhibition in vivo at 3 mg/kg ([2]; 4 hr.): 63%
- inhibition in vivo at 3 mg/kg ([2]; 6 hr.): 59%
- inhibition in vivo at 3 mg/kg ([2]; 8 hr.): 41%
- inhibition in vivo at 10 mg/kg ([2]; 1 hr.): 100%
- inhibition in vivo at 10 mg/kg ([2]; 2 hr.): 97%
- inhibition in vivo at 10 mg/kg ([2]; 4 hr.): 92%
- inhibition in vivo at 10 mg/kg ([2]; 6 hr.): 84%
- inhibition in vivo at 10 mg/kg ([2]; 8 hr.): 78%
- inhibition in vivo at 30 mg/kg ([2]; 1 hr.): 100%
- inhibition in vivo at 30 mg/kg ([2]; 2 hr.): 100%
- inhibition in vivo at 30 mg/kg ([2]; 4 hr.): 97%
- inhibition in vivo at 30 mg/kg ([2]; 6 hr.): 89%
- inhibition in vivo at 30 mg/kg ([2]; 8 hr.): 86%
- inhibition at 3 µM [3]: 100%
- inhibition at 0.3 µM [3]: 100%
- inhibition at 0.03 µM [3]: 18%

Compound: CCC[n+]1cc(Br)cc(C(=O)N(CCOC(=O)NCCOC(=O)Nc2cccc3ccccc23)c2cccc(OC)c2)c1 [Production Example 94, 5-Bromo-3-[N-(3-methoxyphenyl)-N-[2-[2-(1-naphthylcarbamoyloxy)ethyl]carbamoyloxy]ethyl]carbamoyl-1-propylpyridinium chloride]
- inhibition in vivo at 0.03 mg/kg ([2]; 1 hr.): 94%
- inhibition in vivo at 0.03 mg/kg ([2]; 2 hr.): 86%
- inhibition in vivo at 0.03 mg/kg ([2]; 4 hr.): 70%
- inhibition in vivo at 0.03 mg/kg ([2]; 6 hr.): 63%
- inhibition in vivo at 0.03 mg/kg ([2]; 8 hr.): 52%
- inhibition in vivo at 0.03 mg/kg ([2]; 5 min, i.v., 5 min.): 100%
- inhibition in vivo at 1 mg/kg ([2]; 1 hr.): 27%
- inhibition in vivo at 1 mg/kg ([2]; 2 hr.): 34%
- inhibition in vivo at 1 mg/kg ([2]; 4 hr.): 50%
- inhibition in vivo at 1 mg/kg ([2]; 6 hr.): 50%
- inhibition in vivo at 1 mg/kg ([2]; 8 hr.): 40%
- inhibition in vivo at 3 mg/kg ([2]; 1 hr.): 67%
- inhibition in vivo at 3 mg/kg ([2]; 2 hr.): 89%
- inhibition in vivo at 3 mg/kg ([2]; 4 hr.): 93%
- inhibition in vivo at 3 mg/kg ([2]; 6 hr.): 97%
- inhibition in vivo at 3 mg/kg ([2]; 8 hr.): 90%
- inhibition at 3 µM [3]: 100%
- inhibition at 0.3 µM [3]: 99%
- inhibition at 0.03 µM [3]: 10%
